Drawing on patent US20100130738A1 (priority 2007, published 2010), this text covers inhibition in vivo and IC50 for 18 molecules.

For test [1], the system named is histamine-induced bronchoconstriction in guinea pigs. Description: Histamine-induced bronchoconstriction reaction in guinea pigs. Format: in vivo, guinea pig. The conditions noted are these: Cavia porcellus, iv, 0.5 min, compound 0.3 mg/kg i.v., measured 30 seconds after administration, histamine 12.5 μg/kg i.v., read-out: Inhibition rate (histamine-induced bronchoconstriction). Here is the method:
Guinea pigs were anesthetized with pentobarbital (30 mg/kg, i.p.). A cannula for intravenous administration, a cannula for collecting blood and measuring blood pressure, and a tracheal cannula were inserted into the left external jugular vein, right internal carotid artery, and trachea, respectively. The guinea pigs were maintained on artificial respiration under conditions of 60 times/min and 10 mL/kg/stroke. The overflowing air from the side branch of the tracheal cannula was measured by a bronchospasm transducer (Ugo-Basile) and recorded on a computer via Power Lab (ADInstruments Japan). The guinea pigs were immobilized with gallamine (10 mg/kg, i.v.), and histamine (12.5 μg/kg, i.v.) was administered at 10-minute intervals. After the histamine-induced bronchoconstriction became stable, the compound (0.3 mg/kg, i.v.) was administered. The histamine-induced bronchoconstriction reaction was measured 30 seconds after the compound administration to examine the bronchoconstriction inhibitory activity of the compound. The bronchoconstriction was recorded as the airflow value, and the results were represented by the ratio of the maximum value of the histamine-induced airflow 30 seconds after administration to the maximum value of the airflow before administration. Also, the test compounds dissolved in DMSO were used. Further, the indications were as follows: inhibition rate≧90% (+++), 90%>inhibition rate≧80% (++), and 80%>inhibition rate≧60% (+).

For test [2], the target named is T1, PDE3A catalytic domain (PDE3Acat) (Homo sapiens, UniProt Q14432).
T1 construct: isolate the cDNA of a PDE3A catalytic domain; made in house; host or cells: Sf9 insect cells (baculovirus, Bac-to-Bac / Gateway)
T1 sequence (Q14432 674-1093 limits assumed): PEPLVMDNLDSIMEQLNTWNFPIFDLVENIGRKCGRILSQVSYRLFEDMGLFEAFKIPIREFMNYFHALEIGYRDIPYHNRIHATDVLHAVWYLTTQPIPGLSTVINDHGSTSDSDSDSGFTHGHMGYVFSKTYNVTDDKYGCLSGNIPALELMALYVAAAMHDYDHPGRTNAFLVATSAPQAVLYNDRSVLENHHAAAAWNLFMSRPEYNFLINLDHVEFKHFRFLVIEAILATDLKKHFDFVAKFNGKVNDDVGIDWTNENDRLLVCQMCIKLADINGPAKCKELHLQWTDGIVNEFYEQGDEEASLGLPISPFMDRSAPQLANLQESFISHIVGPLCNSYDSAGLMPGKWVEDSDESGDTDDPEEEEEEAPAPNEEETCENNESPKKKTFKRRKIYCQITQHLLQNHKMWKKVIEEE
Description: Phosphodiesterase inhibitory activity, recombinant PDE3Acat, [3H]cAMP. Format: biochemical. The conditions noted are these: 30° C. 20 minutes, read-out: IC50 (μmol/L) PDE3.

For test [3], the target named is T2, PDE4Bcat (Homo sapiens, UniProt Q07343).
T2 construct: made in house; host or cells: Sf9 insect cells (baculovirus, Bac-to-Bac / Gateway)
T2 sequence (Q07343 330-659 limits assumed): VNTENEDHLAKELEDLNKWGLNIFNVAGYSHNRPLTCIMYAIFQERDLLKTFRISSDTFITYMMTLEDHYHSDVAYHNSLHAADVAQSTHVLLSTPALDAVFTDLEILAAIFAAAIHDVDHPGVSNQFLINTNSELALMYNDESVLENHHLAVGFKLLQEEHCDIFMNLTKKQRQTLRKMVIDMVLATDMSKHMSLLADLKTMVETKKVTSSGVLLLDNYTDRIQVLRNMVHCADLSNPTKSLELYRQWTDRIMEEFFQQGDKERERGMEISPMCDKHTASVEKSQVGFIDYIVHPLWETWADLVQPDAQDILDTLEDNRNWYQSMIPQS
The test can be described thus: Phosphodiesterase inhibitory activity, recombinant PDE4Bcat, [3H]cAMP. Format: biochemical. The conditions noted are these: 30° C. 20 minutes, read-out: IC50 (μmol/L) PDE4.

Turning to `CCc1ccc2c(C3=NN(CCCCOc4ccc(C5=NNC(=O)CC5)cc4F)C(=O)C3(C)C)ccc(OC)c2n1` [Example 199, 5-(2-Ethyl-8-methoxyquinolin-5-yl)-2-[4-[2-fluoro-4-(6-oxo-1,4,5,6-tetrahydropyridazin-3-yl)phenoxy]butyl]-4,4-dimethyl-2,4-dihydro-pyrazol-3-one], the inhibition in vivo at 0.3 mg/kg in test [1] was no less than 90%. Further, the results for the IC50 in test [2] and in test [3] were 0.01 to 0.1 µmol/L and less than 0.01 µmol/L, respectively.

As for `CCc1ccc2c(C3=NN(CCCCOc4ccc(C5=NNC(=O)CC5)cc4)C(=O)C3(C)C)ccc(OC)c2n1` [Example 200, 5-(2-Ethyl-8-methoxyquinolin-5-yl)-2-[4-[4-(6-oxo-1,4,5,6-tetrahydropyridazin-3-yl)phenoxy]butyl]-4,4-dimethyl-2,4-dihydro-pyrazol-3-one], the inhibition in vivo at 0.3 mg/kg in test [1] was no less than 90%. For the same molecule, the figures for the IC50 in test [2] and in test [3] were 0.1 to 1 µmol/L and 0.01 to 0.1 µmol/L, respectively.

Take `CCc1ccc2c(C3=NN(CCCCOc4ccc(C5=NNC(=O)C5(C)C)cc4F)C(=O)C3(C)C)ccc(OC)c2n1` [Example 202, 5-(2-Ethyl-8-methoxyquinolin-5-yl)-2-[4-[2-fluoro-4-(4,4-dimethyl-5-oxo-4,5-dihydro-1H-pyrazol-3-yl)phenoxy]butyl]-4,4-dimethyl-2,4-dihydro-pyrazol-3-one]: the inhibition in vivo at 0.3 mg/kg in test [1] lay in the range of 60 to 80%. Besides, the IC50 in test [2] and in test [3] was 0.01 to 0.1 µmol/L in each case.

With `CCc1ccc2c(C3=NN(CCCCOc4ccc(C5=NNC(=O)C5(C)C)c(F)c4F)C(=O)C3(C)C)ccc(OC)c2n1` [Example 203, 5-(2-Ethyl-8-methoxyquinolin-5-yl)-2-[4-[2,3-difluoro-4-(4,4-dimethyl-5-oxo-4,5-dihydro-1H-pyrazol-3-yl)phenoxy]butyl]-4,4-dimethyl-2,4-dihydro-pyrazol-3-one], the inhibition in vivo at 0.3 mg/kg in test [1] is no less than 90%. Besides, the figures for the IC50 in test [2] and in test [3] were less than 0.01 µmol/L and 0.01 to 0.1 µmol/L, respectively.

With `COc1ccc(C2=NN(CCCCOc3ccc(C4=NNC(=O)CC4C)cc3)C(=O)C2(C)C)c2cccnc12` (stereo not drawn) [Example 212, 5-(8-Methoxyquinolin-5-yl)-2-[4-[4-(4-methyl-6-oxo-1,4,5,6-tetrahydropyridazin-3-yl)phenoxy]butyl]-4,4-dimethyl-2,4-dihydro-pyrazol-3-one], in test [1], the inhibition in vivo at 0.3 mg/kg was no less than 90%. For the same molecule, the IC50 in test [2] was less than 0.01 µmol/L; in test [3], 0.01 to 0.1 µmol/L.

In the case of `COc1ccc(C2=NN(CCCCOc3ccc(C4=NNC(=O)C4(C)C)c(F)c3F)C(=O)C2(C)C)c2cccnc12` [Example 213, 2-[4-[2,3-Difluoro-4-(4,4-dimethyl-5-oxo-4,5-dihydro-1H-pyrazol-3-yl)phenoxy]butyl]-5-(8-methoxyquinolin-5-yl)-4,4-dimethyl-2,4-dihydro-pyrazol-3-one], in test [1], the inhibition in vivo at 0.3 mg/kg was no less than 90%. The IC50 in test [2] was less than 0.01 µmol/L; in test [3], 0.01 to 0.1 µmol/L.

On to `COc1ccc(C2=NN(CCCCOc3ccc(C4=NNC(=O)CC4C)c(F)c3F)C(=O)C2(C)C)c2cccnc12` (stereo not drawn) [Example 214, 2-[4-[2,3-Difluoro-4-(4-methyl-6-oxo-1,4,5,6-tetrahydropyridazin-3-yl)phenoxy]butyl]-5-(8-methoxyquinolin-5-yl)-4,4-dimethyl-2,4-dihydro-pyrazol-3-one], for which, in test [1], the inhibition in vivo at 0.3 mg/kg is no less than 90%. Further, the IC50 in test [2] was less than 0.01 µmol/L; in test [3] it was 0.01 to 0.1 µmol/L.

In the case of `COc1ccc(C2=NN(CCCCOc3ccc(C4=NNC(=O)CC4C)cc3F)C(=O)C2(C)C)c2cccnc12` (stereo not drawn) [Example 215, 2-[4-[2-Fluoro-4-(4-methyl-6-oxo-1,4,5,6-tetrahydropyridazin-3-yl)phenoxy]butyl]-5-(8-methoxyquinolin-5-yl)-4,4-dimethyl-2,4-dihydro-pyrazol-3-one], the inhibition in vivo at 0.3 mg/kg in test [1] was no less than 90%. Also, the IC50 in test [2] is less than 0.01 µmol/L; in test [3], 0.01 to 0.1 µmol/L.

For the molecule `COc1ccc(C2=NN(CCCCOc3ccc(C4=NNC(=O)CC4)c(F)c3F)C(=O)C2(C)C)c2[nH]c(C(F)(F)F)nc12` [Example 219, 2-[4-[2,3-Difluoro-4-(6-oxo-1,4,5,6-tetrahydropyridazin-3-yl)phenoxy]butyl]-5-(4-methoxy-2-trifluoromethyl-1H-benzo[d]imidazol-7-yl)-4,4-dimethyl-2,4-dihydro-pyrazol-3-one], the inhibition in vivo at 0.3 mg/kg in test [1] is no less than 90%. The IC50 in test [2] and in test [3] was less than 0.01 µmol/L throughout.

For `COc1ccc(C2=NN(CCCCOc3ccc(C4=NNC(=O)C4(C)C)c(F)c3F)C(=O)C2(C)C)c2[nH]c(C(F)(F)F)nc12` [Example 220, 2-[4-[2,3-Difluoro-4-(4,4-dimethyl-5-oxo-4,5-dihydro-1H-pyrazol-3-yl)phenoxy]butyl]-5-(4-methoxy-2-trifluoromethyl-1H-benzo[d]imidazol-7-yl)-4,4-dimethyl-2,4-dihydro-pyrazol-3-one], the inhibition in vivo at 0.3 mg/kg in test [1] is no less than 90%. The results for the IC50 in test [2] and in test [3] were 0.01 to 0.1 µmol/L and less than 0.01 µmol/L, respectively.

Regarding `COc1ccc(C2=NN(CCCCOc3ccc(C4=NNC(=O)CC4C)c(F)c3F)C(=O)C2(C)C)c2[nH]c(C(F)(F)F)nc12` (stereo not drawn) [Example 221, 2-[4-[2,3-Difluoro-4-(4-methyl-6-oxo-1,4,5,6-tetrahydropyridazin-3-yl)phenoxy]butyl]-5-(4-methoxy-2-trifluoromethyl-1H-benzo[d]imidazol-7-yl)-4,4-dimethyl-2,4-dihydro-pyrazol-3-one], in test [1], the inhibition in vivo at 0.3 mg/kg is no less than 90%. Moreover, the IC50 in test [2] and in test [3] was less than 0.01 µmol/L throughout.

For the molecule `COc1ccc(C2=NN(CCCCOc3ccc(C4=NNC(=O)CC4C)c(F)c3F)C(=O)C2(C)C)c2sc(C(F)(F)F)nc12` (stereo not drawn) [Example 228, 2-[4-[2,3-Difluoro-4-(4-methyl-6-oxo-1,4,5,6-tetrahydropyridazin-3-yl)phenoxy]butyl]-5-(4-methoxy-2-trifluoromethylbenzo[d]thiazol-7-yl)-4,4-dimethyl-2,4-dihydro-pyrazol-3-one], in test [1], the inhibition in vivo at 0.3 mg/kg was 80 to 90%. Moreover, the IC50 in test [2] and in test [3] was less than 0.01 µmol/L throughout.

Consider `COc1ccc(C2=NN(CCCCOc3ccc(C4=NNC(=O)CC4)c(F)c3F)C(=O)C2(C)C)c2sc(C(F)(F)F)nc12` [Example 229, 2-[4-[2,3-Difluoro-4-(6-oxo-1,4,5,6-tetrahydropyridazin-3-yl)phenoxy]butyl]-5-(4-methoxy-2-trifluoromethylbenzo[d]thiazol-7-yl)-4,4-dimethyl-2,4-dihydro-pyrazol-3-one], for which, in test [1], the inhibition in vivo at 0.3 mg/kg was no less than 90%. For the same molecule, the IC50 in test [2] and in test [3] was less than 0.01 µmol/L in each case.

As to `COc1ccc(C2=NN(CCCCOc3ccc(C4=NNC(=O)CC4C)c(F)c3F)C(=O)C2(C)C)n2cc(C(F)(F)F)nc12` (stereo not drawn) [Example 234, 2-[4-[2,3-Difluoro-4-(4-methyl-6-oxo-1,4,5,6-tetrahydropyridazin-3-yl)phenoxy]butyl]-5-(8-methoxy-2-trifluoromethylimidazo[1,2-a]pyridin-5-yl)-4,4-dimethyl-2,4-dihydro-pyrazol-3-one], the inhibition in vivo at 0.3 mg/kg in test [1] was 80 to 90%. For the same molecule, the IC50 in test [2] and in test [3] was less than 0.01 µmol/L each time.

As for `COc1ccc(C2=NN(CCCCOc3ccc(C4=NNC(=O)CC4)c(F)c3F)C(=O)C2(C)C)n2cc(C(F)(F)F)nc12` [Example 235, 2-[4-[2,3-Difluoro-4-(6-oxo-1,4,5,6-tetrahydropyridazin-3-yl)phenoxy]butyl]-5-(8-methoxy-2-trifluoromethylimidazo[1,2-a]pyridin-5-yl)-4,4-dimethyl-2,4-dihydro-pyrazol-3-one], the inhibition in vivo at 0.3 mg/kg in test [1] is 80 to 90%. Moreover, the IC50 in test [2] and in test [3] was less than 0.01 µmol/L each time.

Turning to `COc1ccc(C2=NN(CCCCOc3ccc(C4=NNC(=O)C4(C)C)c(F)c3F)C(=O)C2(C)C)n2cc(C(F)(F)F)nc12` [Example 236, 2-[4-[2,3-Difluoro-4-(4,4-dimethyl-5-oxo-4,5-dihydro-1H-pyrazol-3-yl)phenoxy]butyl]-5-(8-methoxy-2-trifluoromethylimidazo[1,2-a]pyridin-5-yl)-4,4-dimethyl-2,4-dihydro-pyrazol-3-one], in test [1], the inhibition in vivo at 0.3 mg/kg lay within 60 to 80%. For the same molecule, the IC50 in test [2] is 0.01 to 0.1 µmol/L; in test [3], less than 0.01 µmol/L.

In the case of `CCc1ccc2c(C3=NN(CCCCOc4ccc(C5=NNC(=O)CC5)cc4OC)C(=O)C3(C)C)ccc(OC)c2n1` [Example 238], in test [1], the inhibition in vivo at 0.3 mg/kg lay in the range of 60 to 80%. For the same molecule, the IC50 in test [2] and in test [3] was 0.1 to 1 µmol/L in each case.

`CCc1ccc2c(C3=NN(CCCOc4ccc(C5=NNC(=O)CC5C)c(F)c4F)C(=O)C3(C)C)ccc(OC)c2n1` (stereo not drawn) [Example 241, 5-(2-Ethyl-8-methoxyquinolin-5-yl)-2-[4-[2,3-difluoro-4-(4-methyl-6-oxo-1,4,5,6-tetrahydropyridazin-3-yl)phenoxy]propyl]-4,4-dimethyl-2,4-dihydro-pyrazol-3-one]: the inhibition in vivo at 0.3 mg/kg in test [1] is no less than 90%. For the same molecule, the IC50 was less than 0.01 µmol/L in test [2] and 0.1 to 1 µmol/L in test [3].
